Assay results reported in patent publication US5756423A, “Method of controlling plants by inhibition of farnesyl pyrophosphate synthase” (Zeneca Limited, priority 1997, dated 1998).
Like-named read-outs stand apart in the source and are kept apart here.

Columns and labels:
[1] = test system: velvetleaf (Abutilon theophrasti) (ABUTH); experiment: post-emergent herbicidal test, velvetleaf; assay type: in vivo
Excerpt: (§1) Seeds of several different weed species were planted in sandy loam soil containing only trace organic matter. Propagules were sown in individuals rows using one species per row across the width of an aluminum flat (19.5×9.5×6 cm). The grass weeds planted were green foxtail (Setaria viridis) ("SETVI"), wild oat (Avena fatua) ("AVEFA"), barnyard grass (Enchinochloa crusgalli) ("ECHCG"). Broadleaf weeds utilized were wild mustard (Brassica kaber), also known as Sinapis arvensis, ("SINAR"), velvetleaf (Abutilon theophrasti) ("ABUTH") and morningglory (Ipomoea spp.) ("IPOSS"). Additionally, yellow nutsedge (Cyperus esculentus) ("CYPES"), nutlets were sown. Seeding depths ranged from 1.0 to 1.5 cm and plant densities ranged from 3 to 25 plants per row depending on individual plant species.
(§2) The flats were placed into a greenhouse and watered overhead by sprinkling. The greenhouse environmental systems provided the plants with natural and artificial (via metal halide lamps) lighting to attain 14 hours of light per day. Day and night temperatures were maintained at 29° and 21° C. respectively. The plants were grown for 10 to 12 days (or to the appropriate growth stage) prior to compound application. Grasses were sprayed at a 3 to 4 leaf stage and broadleaves at a 1 to 2 leaf stage. Yellow nutsedge was 5 to 7 cm tall at application.
(§3) Solutions of the test compounds were prepared by weighing out 18.8 and 74.7 mg for 1 and 4 kg/ha applications respectively, of the test compound into a 60 ml wide-mouth bottle, then dissolving the compound in 14.0 ml of deionized water containing 0.5% v/v Tween 20' (polyoxyethylene sorbitan monolaurate emulsifier) as a surfactant. Additional solvents, not exceeding 2 ml (15% of spray volume), were used if needed to dissolve the compound.
(§4) The plants were sprayed inside an enclosed linear spray table with the nozzle set at 30.5 cm (12 inches) above the foliage.
(§5) Treated plants were then returned to a greenhouse and watered daily without wetting the foliage.
(§6) The degree of weed control was evaluated 17-21 days after application and recorded as percentage of control as compared to the growth of the same species in an untreated control flat of the same. Percent control is the total injury to the plants due to all factors including: inhibited emergence, stunting, malformation, chlorosis and other types of plant injury. The control ratings range from 0 to 100 percent, where 0% represents no effect with growth equal to the untreated control and where 100% represents complete kill.

[2] = test system: barnyard grass (Enchinochloa crusgalli) (ECHCG); experiment: post-emergent herbicidal test, barnyard grass; assay type: in vivo
Excerpt: as §1, §2, §3, §4, §5, §6

[3] = test system: morningglory (Ipomoea spp.) (IPOSS); experiment: post-emergent herbicidal test, morningglory; assay type: in vivo
Excerpt: as §1, §2, §3, §4, §5, §6

[4] = test system: farnesyl pyrophosphate synthase in daffodil chromoplasts; experiment: inhibition of farnesyl pyrophosphate synthase in daffodil chromoplasts (14C-isopentenyl pyrophosphate incorporation); assay type: biochemical, Narcissus pseudonarcissus; conditions: unit inferred, IC50 values in nM, read-out: IC50
Experimental: The IC50 value may be determined as follows. Daffodil chromoplasts are diluted to a volume of 500 microliters in a buffer containing 0.5M sucrose, 3 mM MgCl2, 1 mM ethylenediaminetetraacetic acid, 20 mM N-tris[hydroxymethyl]methyl-2-aminoethanesulfonic acid, […] N-[2-hydroxyethyl]-piperazine-N'-[2-ethanesulfonic acid], 5 mM L-cysteine, 10 mM sodium fluoride, and 0.1% bovine serum albumin at pH 7.7. The inhibitor to be tested may be dissolved in water other suitable solvent and then added to the reaction mixture. The assay is started by the addition of ^14 C-labeled isopentenyl pyrophosphate (52 Ci/mol) to give a final concentration in the assay of about 3 micromolar. The mixture is incubated at 30° C. with gentle agitation for a period of about 30 min. The reaction may be stopped by the addition of 0.5 mL of saturated NaCl and 2 mL of n-butanol saturated with water. After thorough mixing, the turbid suspensions are centrifuged briefly to separate the layers, and 1 mL of the bright yellow upper butanol layer is added to 10 mL of a suitable scintillation fluid which gives a single phase. The butanol soluble radioactivity is then measured in a scintillation counter.
In addition, the problem of variable quenching differences among different experiments can be essentially eliminated by determining the incorporation of radioactivity relative to controls. Each set of experiments requires two control tubes identical to the test samples except that they contain no inhibitor. One of these is quenched immediately (TO sample) and one is quenched at the end of the normal incubation period (T100 sample).
For each concentration of inhibitor examined the % residual activity is determined from the formula [formula]
Tightly closed daffodil flowers (Narcissus pseudonarcissus) were allowed to open at room temperature. […] Coronae were placed in twice their weight of isolation buffer consisting of 67 mM potassium phosphate, 0.74M sucrose, 5 mM MgCl2, and 0.2% polyvinyl-pyrrolidone at pH 7.6 and were disrupted by 30 seconds of homogenization at high speed in a Waring-type blender. The mixture was filtered through several layers of cheesecloth and 2 layers of 100 micron nylon mesh, and the resulting filtrate was centrifuged at 1000×g for 10 minutes. The pellet was discarded and supernatant was centrifuged at 22,000×g for 20 minutes. […] This solution was centrifuged at 22,000×g for 20 minutes to give orange pellets which were suspended in a buffer of 100 mM tris(hydroxymethyl)aminomethane at pH 7.6 containing 5mM MgCl2 and 2 mM dithiothreitol (1 ml per 10 coronae). This solution was frozen in liquid nitrogen and then stored at -80° C.
Thawed daffodil chromoplasts (100-150 microliters) were diluted to a final volume of 500 microliters in a buffer containing 0.5M sucrose, 3 mM MgCl2, 1 mM ethylenediaminetetraacetic acid, 10 mM N-[2-hydroxyethyl]piperazine-N^1 -[2-ethanesulfonic acid], 5 mM L-cysteine, 10 mM sodium fluoride, and 0.1% bovine serum albumin at pH 7.7. The inhibitor to be tested was dissolved in water or other suitable solvent and was added to the reaction mixture. The assay was started by the addition of ^14 C-labeled isopentenyl pyrophosphate (52 Ci/mol) to give a final concentration in the assay of about 3 micromolar. The mixture was incubated at 30° C. with gentle agitation for a period of about 30 minutes. The reaction was stopped by the addition of 0.5 mL of saturated NaCl and 2 mL of n-butanol saturated with water. After thorough mixing, the turbid suspensions were centrifuged briefly to separate the layers, and 1 mL of the bright yellow upper butanol layer was added to 10 mL of a suitable scintillation fluid which gave a single phase. The butanol soluble radioactivity was then measured in a scintillation counter. Each set of experiments required two control tubes identical to the test samples except that they contain no inhibitor.

[5] = test system: green foxtail (Setaria viridis) (SETVI); experiment: post-emergent herbicidal test, green foxtail; assay type: in vivo
Excerpt: as §1, §2, §3, §4, §5, §6

[6] = test system: wild mustard (Brassica kaber), also known as Sinapis arvensis (SINAR); experiment: post-emergent herbicidal test, wild mustard; assay type: in vivo
Excerpt: as §1, §2, §3, §4, §5, §6

[7] = test system: wild oat (Avena fatua) (AVEFA); experiment: post-emergent herbicidal test, wild oat; assay type: in vivo
Excerpt: as §1, §2, §3, §4, §5, §6

[8] = test system: yellow nutsedge (Cyperus esculentus) (CYPES); experiment: post-emergent herbicidal test, yellow nutsedge; assay type: in vivo
Excerpt: as §1, §2, §3, §4, §5, §6

[9] = Abutilon theophrasti, post-emergence, read-out: ABUTH percent control
[10] = Echinochloa crus-galli, post-emergence, read-out: ECHCG percent control
[11] = Ipomoea, post-emergence, read-out: IPOSS percent control
[12] = Setaria viridis, post-emergence, read-out: SETVI percent control
[13] = Brassica, post-emergence, read-out: SINAR percent control
[14] = Avena fatua, post-emergence, read-out: AVEFA percent control
[15] = Cyperus, post-emergence, read-out: CYPES percent control
[16] = Abutilon theophrasti, post-emergence, post-emergent, 1.0 kg/ha (*), 17-21 days after application, read-out: ABUTH percent control
[17] = Echinochloa crus-galli, post-emergence, post-emergent, 1.0 kg/ha (*), 17-21 days after application, read-out: ECHCG percent control
[18] = Ipomoea, post-emergence, post-emergent, 1.0 kg/ha (*), 17-21 days after application, read-out: IPOSS percent control
[19] = Setaria viridis, post-emergence, post-emergent, 1.0 kg/ha (*), 17-21 days after application, read-out: SETVI percent control
[20] = Brassica, post-emergence, post-emergent, 1.0 kg/ha (*), 17-21 days after application, read-out: SINAR percent control
[21] = Avena fatua, post-emergence, post-emergent, 1.0 kg/ha (*), 17-21 days after application, read-out: AVEFA percent control
[22] = Cyperus, post-emergence, post-emergent, 1.0 kg/ha (*), 17-21 days after application, read-out: CYPES percent control
[23] = post-emergent, 1.0 kg/ha (*), 17-21 days after application

| SMILES | IC50 ([4]; Table I) | IC50 ([4]; Table II) | pest or weed control at 1000 g/ha [1, 16] | pest or weed control at 1000 g/ha [2, 17] | pest or weed control at 1000 g/ha [3, 18] | pest or weed control at 1000 g/ha [5, 19] | pest or weed control at 1000 g/ha [6, 20] | pest or weed control at 1000 g/ha [7, 21] | pest or weed control at 1000 g/ha [8, 22] | other results |
| --- | --- | --- | --- | --- | --- | --- | --- | --- | --- | --- |
| CCNCC(P(=O)(O)O)P(=O)(O)O [Compound 20] | 150 nM | 150 nM | – | – | – | – | – | – | – | pest or weed control at 1000 g/ha [1, 9]: 0%; pest or weed control at 1000 g/ha [2, 10]: 60%; pest or weed control at 1000 g/ha [3, 11]: 0%; pest or weed control at 1000 g/ha [5, 12]: 50%; pest or weed control at 1000 g/ha [6, 13]: 10%; pest or weed control at 1000 g/ha [7, 14]: 40%; pest or weed control at 1000 g/ha [8, 15]: 15% |
| CC1CCCN(CC(P(=O)(O)O)P(=O)(O)O)C1 (stereo not drawn) [Compound 21] | 385 nM | 385 nM | 0% | 30% | 10% | 50% | 30% | 50% | 5% | – |
| CNCC(O)(P(=O)(O)O)P(=O)(O)O [Compound 23] | 500000 nM | > 500000 nM | – | – | – | – | – | – | – | pest or weed control at 4000 g/ha [1, 9]: 0%; pest or weed control at 4000 g/ha [2, 10]: 0%; pest or weed control at 4000 g/ha [3, 11]: 0%; pest or weed control at 4000 g/ha [5, 12]: 0%; pest or weed control at 4000 g/ha [6, 13]: 0%; pest or weed control at 4000 g/ha [7, 14]: 0%; pest or weed control at 4000 g/ha [8, 15]: 0% |
| CCCCN(CCCC)CC(P(=O)(O)O)P(=O)(O)O [Compound 24] | 190 nM | 190 nM | 0% | 98% | 5% | 85% | 30% | 98% | 10% | – |
| CNCC(P(=O)(O)O)P(=O)(O)O [Compound 25] | 1680 nM | 1680 nM | – | – | – | – | – | – | – | pest or weed control at 1000 g/ha [1, 9]: 98%; pest or weed control at 1000 g/ha [2, 10]: 100%; pest or weed control at 1000 g/ha [3, 11]: 90%; pest or weed control at 1000 g/ha [5, 12]: 100%; pest or weed control at 1000 g/ha [6, 13]: 100%; pest or weed control at 1000 g/ha [7, 14]: 100%; pest or weed control at 1000 g/ha [8, 15]: 85% |
| O=P(O)(O)C(CNCCc1ccccc1)P(=O)(O)O [Compound 28] | 1410 nM | 1410 nM | 5% | 5% | 5% | 30% | 50% | 60% | 10% | – |
| CC1CCN(CC(P(=O)(O)O)P(=O)(O)O)CC1 [Compound 30] | 266 nM | 266 nM | 5% | 90% | 30% | 95% | 100% | 90% | 5% | – |

Further molecules by falling IC50 ([4]; Table I), results first:

| IC50 ([4]; Table I) | IC50 ([4]; Table II) | SMILES | pest or weed control at 1000 g/ha [1, 16] | pest or weed control at 1000 g/ha [2, 17] | pest or weed control at 1000 g/ha [3, 18] | pest or weed control at 1000 g/ha [5, 19] | pest or weed control at 1000 g/ha [6, 20] | pest or weed control at 1000 g/ha [7, 21] | pest or weed control at 1000 g/ha [8, 22] | other results |
| --- | --- | --- | --- | --- | --- | --- | --- | --- | --- | --- |
| 1430 nM | 1430 nM | CC(NCC(P(=O)(O)O)P(=O)(O)O)c1ccccc1 (stereo not drawn) [Compound 26] | – | 80% | 10% | – | – | 80% | – | ABUTH percent control [1, 23]: 20%; SETVI percent control [5, 23]: 60%; SINAR percent control [6, 23]: 40%; CYPES percent control [8, 23]: 5% |
| 1230 nM | 1230 nM | CC(NCC(P(=O)(O)O)P(=O)(O)O)c1ccccc1 (stereo not drawn) [Compound 27] | – | – | – | – | – | – | – | ABUTH percent control [1, 23]: 75%; ECHCG percent control [2, 23]: 90%; IPOSS percent control [3, 23]: 5%; SETVI percent control [5, 23]: 90%; SINAR percent control [6, 23]: 100%; AVEFA percent control [7, 23]: 80%; CYPES percent control [8, 23]: 75% |
| 1160 nM | 1660 nM | CCOCCNCC(P(=O)(O)O)P(=O)(O)O [Compound 22] | 5% | 15% | 5% | 20% | 40% | 0% | 0% | – |
| 360 nM | 360 nM | O=P(O)(O)C(CN1CCCCCC1)P(=O)(O)O [Compound 29] | 0% | 60% | 15% | 60% | 85% | 60% | 0% | – |
